Experiments:
[1] = target: CDK5 complexed with p25 (Homo sapiens, UniProt Q00535); assay: Cyclin dependent kinase activity assay (33P peptide phosphorylation); assay type: biochemical; details: 0.1 mM ATP, read-out: CDK 5 Activity*
Procedure: (§1) The assay of cyclin dependent kinase activity was determined by monitoring the phosphorylation of a synthetic peptide, PKTPKKAKKLRRR. The assay mixture contained 0.1 mM cold ATP, ^33P-γ-ATP (2000-4000 cpm/μL), 0.1 mM peptide, 1 mM DDt, and 10 mM MgCl2 in 100 mM HEPES buffer pH 7.4. The assay mixture, along with inhibitor and CDK enzyme (0.3-0.4 U/mL; either CDK5 complexed with p25, CDK2 complexed with complexed with cyclin A), was mixed together in a microtiter plate in a final volume of 40 μL, sealed and incubated for 2 hours at 30° C. Following incubation, a 15 μL aliquot was added to a Whatman P81 filtration plate containing 100 μL 0.5% phosphoric acid. This mixture was allowed to stand for 5 minutes prior to filtration on a vacuum manifold. The filter plate was washed with 5 successive additions of 300 μL 0.5% phosphoric acid. The filtration plate was air dried for 10 minutes before sealing the bottom. After addition of scintillation fluid to the sealed plate, phosphorylated peptide was quantified in a scintillation counter.

[2] = target: KDR (Homo sapiens, UniProt P35968); assay: Enzyme assay for EGFR2 (KDR); assay type: biochemical; details: 50 nM KDR; 500 μM ATP
Procedure: Enzyme assays for IC50 determinations were performed in 96-well titer plates, in a total reaction volume of 50 μL. Each reaction contained 1.5 μL of appropriate dilutions of inhibitor, 50 mM Hepes, pH 7.4, 1 mM DTT, 10 mM magnesium chloride, 2 mM phospho-poly(E4Y) (Sigma Chemical Company), 500 μM unlabeled ATP, 0.0025 μM [^33P]ATP (Amersham Pharmacia Biotech), and 50 nM KDR. All components except KDR were added to the wells, and the reaction was started by the addition of the enzyme. The reactions were mixed and incubated at room temperature for 1 hr, after which the reactions were quenched by the addition of 50 μL of 8% phosphoric acid. At this point, 90 μL aliquots of the samples were applied to positively charged DEAE 96-well filter plates (Millipore Corporation MADENOB10). The plates were incubated for 30 min at room temperature. The samples were aspirated and the wells were washed 3 times with 200 μL of 0.5% phosphoric acid. To each well, 50 μL of scintillation cocktail was added and counted for 60 sec in a TopCount microplate scintillation counter (Packard Instrument Company). The concentration of a compound that inhibited the activity of KDR by 50% (IC50) was determined based its inhibition curve.

[3] = test system: panel of protein kinases; assay: Specificity studies, summary in words; assay type: biochemical; details: against a panel of protein kinases
Procedure: The assays of kinases were determined by monitoring the phosphorylation of appropriate substrates. The assay mixture contained 0.1 mM cold ATP ^33P-γ-ATP (2000-4000 cpm/μL), 0.1 mM substrate, 1 mM DTT, and 10 mM MgCl2 in 100 mM HEPES buffer pH 7.4. The assay mixture, along with inhibitor and kinase enzyme (0.3-0.4 U/mL), was mixed together in a microtiter 96-well plate in a final volume of 40 μL, sealed and incbated for 1 hour at 30° C. Following incubation, a 15 μL aliquot was added to a Whatman P81 filtration plate containing 100 μL 0.5% phosphoric acid. This mixture was allowed to stand for 5 minutes prior to filtration on a vacuum manifold. The filter plate was washed with 5 successive additions of 300 μL 0.5% phosporic acid. The filtration plate was air dried for 10 minutes before sealing the bottom. After addition of scintillation fluid to the sealed plate, phosphorylated substrate was quantified in a scintillation counter.

[4] = test system: A549/ATCC; assay: In vitro tumor cell efficacy test (SRB cell viability); assay type: cell-based; details: Homo sapiens, Non-Small Cell Lung Cancer, 72 hours
[5] = target: CDK2 complexed with cyclin A (Homo sapiens, UniProt P24941); assay: Cyclin dependent kinase activity assay (33P peptide phosphorylation); assay type: biochemical; details: 0.1 mM ATP, read-out: CDK 2 Activity*
Procedure: as §1

Sequence of CDK5 complexed with p25 (Q00535 whole entry): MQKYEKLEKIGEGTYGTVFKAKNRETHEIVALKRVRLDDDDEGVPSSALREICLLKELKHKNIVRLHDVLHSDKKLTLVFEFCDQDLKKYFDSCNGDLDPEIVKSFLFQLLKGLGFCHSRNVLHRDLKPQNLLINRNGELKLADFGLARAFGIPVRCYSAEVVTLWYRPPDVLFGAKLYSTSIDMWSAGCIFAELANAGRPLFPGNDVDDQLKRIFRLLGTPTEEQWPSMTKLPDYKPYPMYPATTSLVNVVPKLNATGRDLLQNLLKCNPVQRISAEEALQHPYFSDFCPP
Sequence of CDK5 complexed with p25 (Q15078 99-307 partner limits assumed): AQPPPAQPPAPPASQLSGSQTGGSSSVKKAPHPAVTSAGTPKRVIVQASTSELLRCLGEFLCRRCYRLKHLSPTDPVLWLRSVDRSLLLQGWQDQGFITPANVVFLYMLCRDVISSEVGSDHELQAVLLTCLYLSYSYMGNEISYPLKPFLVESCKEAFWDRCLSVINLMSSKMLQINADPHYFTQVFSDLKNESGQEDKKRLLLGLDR
Sequence of KDR (P35968 20-1356, species assumed): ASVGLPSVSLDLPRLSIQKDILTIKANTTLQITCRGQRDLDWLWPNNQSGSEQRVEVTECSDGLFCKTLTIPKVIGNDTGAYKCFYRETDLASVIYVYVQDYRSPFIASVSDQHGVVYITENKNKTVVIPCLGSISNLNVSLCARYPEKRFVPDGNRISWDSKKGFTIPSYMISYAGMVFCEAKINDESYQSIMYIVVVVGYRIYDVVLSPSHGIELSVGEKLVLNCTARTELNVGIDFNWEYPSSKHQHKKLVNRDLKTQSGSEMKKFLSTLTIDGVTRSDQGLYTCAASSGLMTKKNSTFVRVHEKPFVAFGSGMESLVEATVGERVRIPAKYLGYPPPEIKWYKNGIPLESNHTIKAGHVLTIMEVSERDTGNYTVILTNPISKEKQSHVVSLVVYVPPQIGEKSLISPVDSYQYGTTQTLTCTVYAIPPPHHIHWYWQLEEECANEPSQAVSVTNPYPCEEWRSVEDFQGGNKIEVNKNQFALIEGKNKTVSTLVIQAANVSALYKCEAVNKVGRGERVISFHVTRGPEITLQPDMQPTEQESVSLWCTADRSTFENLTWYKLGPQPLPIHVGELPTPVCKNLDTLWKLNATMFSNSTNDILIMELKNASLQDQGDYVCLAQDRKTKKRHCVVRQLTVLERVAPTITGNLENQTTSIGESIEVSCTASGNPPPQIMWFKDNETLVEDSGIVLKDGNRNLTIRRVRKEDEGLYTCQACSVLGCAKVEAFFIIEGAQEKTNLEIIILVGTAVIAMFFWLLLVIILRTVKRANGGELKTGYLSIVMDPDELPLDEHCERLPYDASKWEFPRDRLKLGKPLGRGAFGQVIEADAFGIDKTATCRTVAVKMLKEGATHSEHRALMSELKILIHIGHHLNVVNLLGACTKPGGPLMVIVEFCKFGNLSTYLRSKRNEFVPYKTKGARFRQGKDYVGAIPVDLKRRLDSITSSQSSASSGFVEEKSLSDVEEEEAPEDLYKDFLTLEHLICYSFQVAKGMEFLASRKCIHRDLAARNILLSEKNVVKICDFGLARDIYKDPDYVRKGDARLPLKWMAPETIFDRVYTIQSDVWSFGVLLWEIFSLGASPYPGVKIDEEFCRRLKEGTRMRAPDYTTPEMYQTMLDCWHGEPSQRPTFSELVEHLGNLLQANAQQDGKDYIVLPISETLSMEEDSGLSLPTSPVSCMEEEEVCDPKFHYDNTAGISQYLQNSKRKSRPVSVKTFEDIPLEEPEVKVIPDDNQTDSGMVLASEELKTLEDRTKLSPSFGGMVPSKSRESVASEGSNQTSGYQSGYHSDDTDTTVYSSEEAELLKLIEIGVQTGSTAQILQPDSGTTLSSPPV

Row | SMILES | IC50 [1] [nM] | IC50 [2] [nM] | specificity for CDK5 and CDK2 [3] | LC50 [4] [nM] | IC50 [5] [nM]
1 | Nc1nc(-c2cc(-c3ccc(O)cc3)ccc2O)cc(N2CCCC2CO)n1 (stereo in doubt) [Example 79, 3-[2-Amino-6-(2R-hydroxymethyl-pyrrolidin-1-yl)-pyrimidin-4-yl]-biphenyl-4,4′-diol] | < 500 | 1000 to 20000 | – | – | –
2 | Nc1nccc(-c2cc(-c3ccc(O)cc3)ccc2O)n1 [3-(2-Amino-pyrimidin-4-yl)-biphenyl-4,4′-diol] | – | – | highly specific | > 100000 | –
3 | NC(=S)N/N=C/c1cc(-c2ccc(CO)cc2)ccc1O [Example 10, 5-(4-Hydroxymethylphenyl)salicylaldehyde Thiosemicarbazone] | 500 to 2000 | – | – | – | 2000 to 5000
4 | NC(=O)/C=C/c1ccc(O)c(/C=N/NC(N)=S)c1 [Example 39, 3-Formyl-4-hydroxycinnamide, Thiosemicarbazone] | > 5000 | – | – | – | 500 to 2000

Reference: patent US20030208067A1, “Inhibitors of protein kinase for the treatment of disease” (priority 2001, published 2003)
